The values that follow are results of earlier work, collected in patent US20240423197A1, “KIT FOR PREPARING HERBICIDAL APPLICATION MIXTURES” (BAYER CROPSCIENCE LP, priority 2021, published 2024).

The conditions of the data set: known HLB value predetermined based on estimation by Griffin's method.

As for “Polysorbate 80 (polyoxyethylene sorbitan monooleate) [Tween® 80]”, the HLB is 15.

Take Sorbitan monooleate [Span® 80]: the HLB was 4.3.
